Experimental findings from paper doi:10.1101/2024.08.13.607785v1 (biorxiv, 2024) are described below.

What all share (test): biochemical
Design in all cases: species or system human cell line lysate

Assay [1] has as its target LIM domain kinase 2 ; LIMK2 ; P53671 (Homo sapiens, UniProt P53671).
The target in assay [2] is Tyrosine-protein kinase JAK2 ; JAK2 ; O60674 (Homo sapiens, UniProt O60674).
The target in assay [3] is Serine/threonine-protein kinase 16 ; STK16 ; O75716 (Homo sapiens, UniProt O75716).
In assay [4] the target is T1, Ephrin type-B receptor 1 ; EPHB1 ; P54762 (Homo sapiens, UniProt P54762).
T1 sequence (P54762 1-984): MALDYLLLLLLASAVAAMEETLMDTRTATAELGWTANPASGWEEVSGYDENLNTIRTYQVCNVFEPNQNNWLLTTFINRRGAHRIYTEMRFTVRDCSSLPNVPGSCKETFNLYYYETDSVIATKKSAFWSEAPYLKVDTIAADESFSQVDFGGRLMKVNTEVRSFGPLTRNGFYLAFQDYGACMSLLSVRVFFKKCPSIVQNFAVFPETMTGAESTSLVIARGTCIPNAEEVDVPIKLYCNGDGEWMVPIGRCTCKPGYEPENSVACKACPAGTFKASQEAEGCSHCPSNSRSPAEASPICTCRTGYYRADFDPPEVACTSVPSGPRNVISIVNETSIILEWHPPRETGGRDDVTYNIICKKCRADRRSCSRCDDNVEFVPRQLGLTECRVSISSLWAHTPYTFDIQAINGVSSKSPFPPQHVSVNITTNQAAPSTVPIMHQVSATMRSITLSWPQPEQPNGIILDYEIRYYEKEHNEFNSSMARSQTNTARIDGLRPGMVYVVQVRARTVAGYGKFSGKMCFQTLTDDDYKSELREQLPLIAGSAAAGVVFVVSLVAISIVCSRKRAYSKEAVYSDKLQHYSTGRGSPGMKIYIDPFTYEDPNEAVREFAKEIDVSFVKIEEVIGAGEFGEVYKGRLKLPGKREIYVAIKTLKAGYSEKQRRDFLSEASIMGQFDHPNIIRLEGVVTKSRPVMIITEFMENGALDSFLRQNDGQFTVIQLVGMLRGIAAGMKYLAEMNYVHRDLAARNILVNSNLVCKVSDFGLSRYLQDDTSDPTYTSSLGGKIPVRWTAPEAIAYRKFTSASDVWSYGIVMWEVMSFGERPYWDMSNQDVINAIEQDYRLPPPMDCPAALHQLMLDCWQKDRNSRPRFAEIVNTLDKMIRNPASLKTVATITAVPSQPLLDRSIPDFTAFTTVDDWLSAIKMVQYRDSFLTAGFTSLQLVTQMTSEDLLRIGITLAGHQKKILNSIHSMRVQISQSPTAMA

For assay [5], the target named is Wee1-like protein kinase ; WEE1 ; P30291 (Homo sapiens, UniProt P30291).
The target in assay [6] is Calcium/calmodulin-dependent protein kinase type II subunit delta ; CAMK2D ; Q13557 (Homo sapiens, UniProt Q13557).
For assay [7], the target named is Isoform Mxi2 of Mitogen-activated protein kinase 14 ; MAPK14 ; Q16539-3 (Homo sapiens, UniProt Q16539).
Assay [8] concerns the target Bone morphogenetic protein receptor type-1A ; BMPR1A ; P36894 (Homo sapiens, UniProt P36894).
In assay [9] the target is Isoform 2 of Serine/threonine-protein kinase TAO2 ; TAOK2 ; Q9UL54-2 (Homo sapiens, UniProt Q9UL54).
In assay [10] the target is Casein kinase II subunit alpha' ; CSNK2A2 ; P19784 (Homo sapiens, UniProt P19784).
Assay [11] deals with Mitogen-activated protein kinase 15 ; MAPK15 ; Q8TD08 (Homo sapiens, UniProt Q8TD08).
The target of assay [12] is Tyrosine-protein kinase SYK ; SYK ; P43405 (Homo sapiens, UniProt P43405).
Assay [13] has as its target Mitotic checkpoint serine/threonine-protein kinase BUB1 ; BUB1 ; O43683 (Homo sapiens, UniProt O43683).
Assay [14] addresses Vascular endothelial growth factor receptor 3 ; FLT4 ; P35916 (Homo sapiens, UniProt P35916).
Assay [15] has as its target Isoform 2 of 5'-AMP-activated protein kinase catalytic subunit alpha-1 ; PRKAA1 ; Q13131-2 (Homo sapiens, UniProt Q13131).
Assay [16] concerns the target Serine/threonine-protein kinase TAO3 ; TAOK3 ; Q9H2K8 (Homo sapiens, UniProt Q9H2K8).
Setting [17] is: read-out: BAY-1143572 (10 µM) / %Intensity relative to DMSO.
[18] abbreviates: read-out: BAY-1251152 (10 µM) / %Intensity relative to DMSO.

Where two headings read alike, the source gives them in different places.

Sequence of Isoform Mxi2 of Mitogen-activated protein kinase 14 ; MAPK14 ; Q16539-3 (Q16539 whole entry, canonical isoform): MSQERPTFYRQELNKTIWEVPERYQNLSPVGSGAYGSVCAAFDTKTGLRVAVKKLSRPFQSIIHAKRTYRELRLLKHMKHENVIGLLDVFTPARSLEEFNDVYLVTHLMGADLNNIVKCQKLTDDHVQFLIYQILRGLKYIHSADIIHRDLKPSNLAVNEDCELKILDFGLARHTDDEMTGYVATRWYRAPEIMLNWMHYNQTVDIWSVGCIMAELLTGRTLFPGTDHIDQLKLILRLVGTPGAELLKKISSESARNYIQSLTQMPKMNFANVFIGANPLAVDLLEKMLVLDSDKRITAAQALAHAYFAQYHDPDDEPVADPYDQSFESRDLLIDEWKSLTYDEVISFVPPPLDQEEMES
Sequence of Mitogen-activated protein kinase 15 ; MAPK15 ; Q8TD08 (Q8TD08 whole entry): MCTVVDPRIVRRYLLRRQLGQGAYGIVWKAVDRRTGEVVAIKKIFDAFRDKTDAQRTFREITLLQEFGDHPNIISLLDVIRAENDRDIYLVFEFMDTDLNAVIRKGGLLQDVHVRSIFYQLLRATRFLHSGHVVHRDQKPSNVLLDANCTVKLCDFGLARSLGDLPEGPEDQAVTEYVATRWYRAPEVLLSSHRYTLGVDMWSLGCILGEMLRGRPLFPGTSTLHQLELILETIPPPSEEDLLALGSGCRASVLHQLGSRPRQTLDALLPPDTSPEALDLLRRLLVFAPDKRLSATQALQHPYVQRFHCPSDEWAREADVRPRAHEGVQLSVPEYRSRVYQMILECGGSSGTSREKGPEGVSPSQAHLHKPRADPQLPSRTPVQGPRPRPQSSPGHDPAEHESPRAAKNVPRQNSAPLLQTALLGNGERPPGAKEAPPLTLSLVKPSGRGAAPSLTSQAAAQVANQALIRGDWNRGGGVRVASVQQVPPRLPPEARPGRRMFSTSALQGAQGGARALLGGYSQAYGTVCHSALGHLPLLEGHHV
Sequence of Serine/threonine-protein kinase TAO3 ; TAOK3 ; Q9H2K8 (Q9H2K8 whole entry, one chain of several): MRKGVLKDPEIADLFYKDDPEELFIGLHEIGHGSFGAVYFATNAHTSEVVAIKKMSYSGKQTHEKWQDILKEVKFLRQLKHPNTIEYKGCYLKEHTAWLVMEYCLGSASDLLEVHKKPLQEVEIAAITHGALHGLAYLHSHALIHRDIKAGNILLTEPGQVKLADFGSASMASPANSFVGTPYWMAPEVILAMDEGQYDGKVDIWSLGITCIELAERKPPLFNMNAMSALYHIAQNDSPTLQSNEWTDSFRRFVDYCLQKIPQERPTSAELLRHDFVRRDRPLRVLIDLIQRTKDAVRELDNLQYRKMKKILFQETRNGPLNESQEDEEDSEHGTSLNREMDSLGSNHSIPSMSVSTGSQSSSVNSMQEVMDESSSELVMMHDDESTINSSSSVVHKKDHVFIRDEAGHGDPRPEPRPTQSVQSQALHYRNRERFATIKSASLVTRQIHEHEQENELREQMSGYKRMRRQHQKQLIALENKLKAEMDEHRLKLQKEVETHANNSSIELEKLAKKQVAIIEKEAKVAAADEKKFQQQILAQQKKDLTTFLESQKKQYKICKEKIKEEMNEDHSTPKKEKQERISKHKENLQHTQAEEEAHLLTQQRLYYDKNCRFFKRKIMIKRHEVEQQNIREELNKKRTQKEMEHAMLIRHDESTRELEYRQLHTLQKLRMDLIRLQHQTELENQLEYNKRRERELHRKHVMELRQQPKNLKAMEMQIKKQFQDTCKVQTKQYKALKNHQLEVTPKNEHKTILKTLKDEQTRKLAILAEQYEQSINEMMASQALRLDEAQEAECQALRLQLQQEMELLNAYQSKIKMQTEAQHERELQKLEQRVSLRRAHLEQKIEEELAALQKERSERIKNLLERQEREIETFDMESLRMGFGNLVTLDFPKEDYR
Sequence of Casein kinase II subunit alpha' ; CSNK2A2 ; P19784 (P19784 whole entry, one chain of several): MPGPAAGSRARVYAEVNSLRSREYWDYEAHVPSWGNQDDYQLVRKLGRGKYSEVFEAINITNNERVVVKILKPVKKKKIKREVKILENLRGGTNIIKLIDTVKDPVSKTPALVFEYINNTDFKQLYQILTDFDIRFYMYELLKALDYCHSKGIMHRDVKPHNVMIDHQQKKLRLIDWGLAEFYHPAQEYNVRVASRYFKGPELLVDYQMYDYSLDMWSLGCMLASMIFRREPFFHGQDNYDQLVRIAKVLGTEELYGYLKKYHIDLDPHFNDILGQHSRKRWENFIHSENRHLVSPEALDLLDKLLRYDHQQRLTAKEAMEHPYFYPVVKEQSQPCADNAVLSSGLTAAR
Sequence of Isoform 2 of 5'-AMP-activated protein kinase catalytic subunit alpha-1 ; PRKAA1 ; Q13131-2 (Q13131 whole entry, canonical isoform, one chain of several): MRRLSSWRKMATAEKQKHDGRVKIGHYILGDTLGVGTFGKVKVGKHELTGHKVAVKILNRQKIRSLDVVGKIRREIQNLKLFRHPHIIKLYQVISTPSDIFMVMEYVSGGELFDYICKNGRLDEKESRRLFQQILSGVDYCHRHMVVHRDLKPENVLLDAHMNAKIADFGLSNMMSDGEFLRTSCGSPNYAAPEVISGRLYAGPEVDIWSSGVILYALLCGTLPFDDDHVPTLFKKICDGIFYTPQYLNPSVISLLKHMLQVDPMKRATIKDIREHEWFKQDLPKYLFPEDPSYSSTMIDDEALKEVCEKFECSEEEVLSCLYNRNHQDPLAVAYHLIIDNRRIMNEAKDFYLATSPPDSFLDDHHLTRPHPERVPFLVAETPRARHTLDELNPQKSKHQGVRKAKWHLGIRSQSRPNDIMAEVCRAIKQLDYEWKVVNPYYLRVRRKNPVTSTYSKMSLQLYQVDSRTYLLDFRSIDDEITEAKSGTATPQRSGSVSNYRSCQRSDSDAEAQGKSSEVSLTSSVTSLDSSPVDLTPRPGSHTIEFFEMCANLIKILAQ
Sequence of Mitotic checkpoint serine/threonine-protein kinase BUB1 ; BUB1 ; O43683 (O43683 whole entry, one chain of several): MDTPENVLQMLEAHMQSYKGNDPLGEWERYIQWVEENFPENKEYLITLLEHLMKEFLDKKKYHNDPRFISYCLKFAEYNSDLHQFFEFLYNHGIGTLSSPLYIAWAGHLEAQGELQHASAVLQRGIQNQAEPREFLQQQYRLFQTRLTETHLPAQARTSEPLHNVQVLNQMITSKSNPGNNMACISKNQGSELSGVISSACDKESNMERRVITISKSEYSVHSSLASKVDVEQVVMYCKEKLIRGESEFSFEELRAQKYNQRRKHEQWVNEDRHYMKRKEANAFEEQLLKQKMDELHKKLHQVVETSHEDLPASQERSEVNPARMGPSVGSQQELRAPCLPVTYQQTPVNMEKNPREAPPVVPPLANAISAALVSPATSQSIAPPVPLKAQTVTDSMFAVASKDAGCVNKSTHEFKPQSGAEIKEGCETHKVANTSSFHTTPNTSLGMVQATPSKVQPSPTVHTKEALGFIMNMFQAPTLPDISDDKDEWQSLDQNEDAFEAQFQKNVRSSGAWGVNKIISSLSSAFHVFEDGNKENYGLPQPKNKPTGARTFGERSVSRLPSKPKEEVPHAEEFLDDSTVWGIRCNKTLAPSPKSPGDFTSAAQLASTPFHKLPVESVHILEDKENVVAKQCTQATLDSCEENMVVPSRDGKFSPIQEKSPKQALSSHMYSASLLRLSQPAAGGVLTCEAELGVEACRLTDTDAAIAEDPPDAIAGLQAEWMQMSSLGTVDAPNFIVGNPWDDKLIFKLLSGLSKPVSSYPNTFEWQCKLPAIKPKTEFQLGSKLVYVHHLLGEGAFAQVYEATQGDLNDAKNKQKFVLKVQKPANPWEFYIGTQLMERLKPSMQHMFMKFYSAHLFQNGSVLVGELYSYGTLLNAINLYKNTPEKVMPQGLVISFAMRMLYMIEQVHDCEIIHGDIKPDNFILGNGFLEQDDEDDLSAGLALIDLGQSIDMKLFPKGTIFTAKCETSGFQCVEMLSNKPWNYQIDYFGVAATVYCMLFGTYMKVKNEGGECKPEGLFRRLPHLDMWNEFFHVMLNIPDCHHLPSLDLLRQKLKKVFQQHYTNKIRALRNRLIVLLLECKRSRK
Sequence of Serine/threonine-protein kinase 16 ; STK16 ; O75716 (O75716 whole entry, one chain of several): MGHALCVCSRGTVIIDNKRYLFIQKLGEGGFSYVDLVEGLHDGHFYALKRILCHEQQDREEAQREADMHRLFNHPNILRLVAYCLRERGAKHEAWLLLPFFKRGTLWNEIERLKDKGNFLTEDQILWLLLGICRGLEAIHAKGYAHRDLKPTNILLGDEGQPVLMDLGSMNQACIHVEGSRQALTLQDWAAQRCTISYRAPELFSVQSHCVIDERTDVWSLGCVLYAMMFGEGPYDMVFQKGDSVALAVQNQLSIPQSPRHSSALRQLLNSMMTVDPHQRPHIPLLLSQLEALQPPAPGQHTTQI
Sequence of Calcium/calmodulin-dependent protein kinase type II subunit delta ; CAMK2D ; Q13557 (Q13557 whole entry, canonical isoform, one chain of several): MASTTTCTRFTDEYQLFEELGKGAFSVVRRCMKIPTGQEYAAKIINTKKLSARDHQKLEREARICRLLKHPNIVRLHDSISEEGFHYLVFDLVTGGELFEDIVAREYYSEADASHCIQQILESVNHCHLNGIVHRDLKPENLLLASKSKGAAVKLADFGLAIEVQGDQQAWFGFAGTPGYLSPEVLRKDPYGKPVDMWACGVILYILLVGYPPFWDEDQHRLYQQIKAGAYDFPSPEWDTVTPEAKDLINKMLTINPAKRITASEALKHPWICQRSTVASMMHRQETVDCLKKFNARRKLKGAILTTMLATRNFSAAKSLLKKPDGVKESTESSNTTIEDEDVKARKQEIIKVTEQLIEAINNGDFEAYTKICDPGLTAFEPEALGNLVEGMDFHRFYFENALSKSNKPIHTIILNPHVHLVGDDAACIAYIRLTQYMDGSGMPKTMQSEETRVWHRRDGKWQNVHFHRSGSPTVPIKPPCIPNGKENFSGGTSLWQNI

With `COc1cc(F)ccc1-c1ncnc(Nc2cccc(C[S@](C)(=N)=O)c2)n1` [BAY-1143572], the remaining activity at 10 µM amounted to 78% in [1] (setting [17]); 95.1% in assay [2] (setting [17]); 64.2% in assay [3] (setting [17]); 91.7% in [4] (setting [17]); 101% in assay [5] (setting [17]); 94.4% in [6] (setting [17]). For the same compound, the remaining activity at 10 µM in [7] (setting [17]) is 128%; in assay [8] (setting [17]), 164%; in assay [9] (setting [17]), 95.8%; in assay [10] (setting [17]), 114%; in [11] (setting [17]) it was 98.2%; in [12] (setting [17]), 106%. Moreover, the remaining activity at 10 µM in assay [13] (setting [17]) turned out to be 109%; in assay [14] (setting [17]) it was 115%; in assay [15] (setting [17]), 99.5%; in assay [16] (setting [17]), 111%.
Consider `COc1cc(F)ccc1-c1cc(Nc2cc(CS(C)(=N)=O)ccn2)ncc1F` (centres unmarked) [BAY-1251152], for which the remaining activity at 10 µM in [1] (setting [18]) is 109%; in assay [2] (setting [18]), 95.9%; in [3] (setting [18]) it was 61.5%; in assay [4] (setting [18]), 108%; in [5] (setting [18]), 102%; in [6] (setting [18]), 90.9%. Further, the remaining activity at 10 µM in assay [7] (setting [18]) was 119%; in [8] (setting [18]), 122%; in [9] (setting [18]) it was 76.6%; in [10] (setting [18]), 98.2%; in assay [11] (setting [18]) it was 101%; in assay [12] (setting [18]) it was 94%. The remaining activity at 10 µM in assay [13] (setting [18]) was found to be 106%; in [14] (setting [18]), 104%; in [15] (setting [18]), 103%; in [16] (setting [18]), 84%.
